Experimental findings from ChEMBL document CHEMBL1201862, “PubChem BioAssay data set” (2004) are described below.

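All cell lines were grown in 96-well plates and treated with compound for 48 hours. GI50 marks 50% less growth.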 Activity calls are given as the source filed them. Rule as the data show it: active = GI50 up to about 1.1 µM and inactive = higher.

What all share (experiment): NCI tumour cell line growth inhibition, 48 h
The test system of experiment [1] is 786-0.
Experiment [2] relates to ACHN.
In experiment [3] the test system is BT-549.
In experiment [4] the test system is EKVX.
Experiment [5] concerns HCC 2998.
The subject of experiment [6] is Hs-578T.
The subject of experiment [7] is MDA-MB-435.
Experiment [8] deals with MDA-N.
Experiment [9] relates to MOLT-4.
The subject of experiment [10] is SF-539.
For experiment [11], the system named is SK-MEL-2.
Experiment [12] has as its system SN12C.
Experiment [13] relates to SNB-19.
The subject of experiment [14] is SW-620.
Experiment [15] has as its system T47D.
Experiment [16] deals with TK-10.
In experiment [17] the test system is U-251.
Experiment [18] concerns UACC-62.
Experiment [19] relates to UO-31.
Experiment [20] has as its system NCI-H226.

Take `CC(C)OC(=O)NNc1cc(Cl)ccc1Cl`: the GI50 in experiment [1] is > 100 µM (inactive); in experiment [2] it was > 100 µM (inactive); in experiment [3], 64.3 µM (inactive); in experiment [4], 30.8 µM (inactive); in experiment [5], 61 µM (inactive); in experiment [6], 81.5 µM (inactive). Besides, the GI50 in experiment [7] is > 100 µM (inactive); in experiment [8], 73.6 µM (inactive); in experiment [9], 0.0611 µM (active); in [10] it was > 100 µM (inactive); in experiment [11], 65.8 µM (inactive); in [12] it was > 100 µM (inactive). Also, the GI50 is > 100 µM (inactive) in experiment [13]; > 100 µM (inactive) in experiment [14]; 42 µM (inactive) in experiment [15]; 36.6 µM (inactive) in experiment [16]; > 100 µM (inactive) in [17]; 43.7 µM (inactive) in experiment [18]. In addition, in experiment [19], the GI50 was > 100 µM (inactive).
Turning to `O=c1c2ncn(C3CC(O)C(CO)O3)c2nnn1Cc1ccccc1[N+](=O)[O-]` (stereo not given), the GI50 in experiment [1], in experiment [2], in experiment [3], in [4], in experiment [5] and in experiment [6] was > 100 µM (inactive) in each case. For the same molecule, the GI50 was > 100 µM (inactive) in [7]; > 100 µM (inactive) in [8]; 29.4 µM (inactive) in experiment [9]; 43.6 µM (inactive) in [20]; > 100 µM (inactive) in experiment [10]; 4.78 µM (inactive) in experiment [11]. Also, the GI50 in experiment [12], in experiment [13], in experiment [14], in [15], in [16] and in experiment [17] was > 100 µM (inactive) in each case. In addition, the GI50 in [18] and in experiment [19] was > 100 µM (inactive) throughout.
In the case of `Cc1nn(-c2ccccn2)c2c1C(SC#N)=C(C=O)CC2`, the GI50 in experiment [1] is 12.4 µM (inactive); in experiment [2], 16.3 µM (inactive); in experiment [3] it was 18.5 µM (inactive); in [4], 16.9 µM (inactive); in [5] it was 11.9 µM (inactive); in [6] it was 33.7 µM (inactive). Besides, the GI50 was 18.1 µM (inactive) in experiment [7]; 17.7 µM (inactive) in experiment [8]; 2.57 µM (inactive) in [9]; 19.1 µM (inactive) in experiment [10]; 16.9 µM (inactive) in experiment [11]; 18.5 µM (inactive) in [12]. The GI50 was 19.6 µM (inactive) in experiment [13]; 13.7 µM (inactive) in experiment [14]; 4.05 µM (inactive) in experiment [15]; 1.67 µM (inactive) in [16]; 15.5 µM (inactive) in [17]; 5.71 µM (inactive) in [18]. The GI50 in experiment [19] is 14.6 µM (inactive).
As to `C=CC(C)(C)n1cc(C2=C(O)C(=O)C(c3cn(C(C)(C)C=C)c4ccccc34)=C(O)C2=O)c2ccccc21`, the GI50 in experiment [1] was 3.05 µM (inactive); in experiment [2], 3.69 µM (inactive); in experiment [3] it was 1.01 µM (active); in [4] it was 2.93 µM (inactive); in [5], 2.61 µM (inactive); in experiment [6], 2.07 µM (inactive). Besides, the GI50 in experiment [7] is 3.79 µM (inactive); in experiment [8], 1.95 µM (inactive); in [9] it was 4.07 µM (inactive); in [20], 2.67 µM (inactive); in experiment [10] it was 1.59 µM (inactive); in experiment [11] it was 1.73 µM (inactive). For the same molecule, the GI50 in [12] is 2.5 µM (inactive); in experiment [13], 2.41 µM (inactive); in [14], 10.3 µM (inactive); in experiment [15], 6.71 µM (inactive); in experiment [16] it was 3.18 µM (inactive); in experiment [17] it was 2.35 µM (inactive). In addition, the GI50 was 1.98 µM (inactive) in experiment [18] and 1.67 µM (inactive) in [19].
Take `Cc1cccc2c1CC(Cc1ccccc1C(=O)O)C2=O` (stereo not given): the GI50 in experiment [1], in experiment [2], in experiment [3], in experiment [4], in [5] and in [6] was > 100 µM (inactive) in each case. The GI50 in [7], in experiment [8], in experiment [9], in [20], in experiment [10] and in experiment [11] was > 100 µM (inactive) in each case. Also, the GI50 in [12], in [13], in experiment [14], in experiment [15], in experiment [16] and in experiment [17] was > 100 µM (inactive) each time. For the same molecule, the GI50 in [18] and in [19] was > 100 µM (inactive) in each case.
As for `Cc1ccc(C)n2c1nc1ccccc12`, the GI50 in experiment [1] is > 100 µM (inactive); in experiment [2] it was > 100 µM (inactive); in experiment [3], > 100 µM (inactive); in [4] it was 62.7 µM (inactive); in experiment [5] it was > 100 µM (inactive); in experiment [6] it was > 100 µM (inactive). The GI50 in experiment [7] was > 100 µM (inactive); in [8] it was > 100 µM (inactive); in experiment [9], 62.4 µM (inactive); in [20], > 100 µM (inactive); in [10], > 100 µM (inactive); in experiment [12], > 100 µM (inactive). Moreover, the GI50 is > 100 µM (inactive) in experiment [13]; > 100 µM (inactive) in experiment [14]; > 100 µM (inactive) in [15]; > 100 µM (inactive) in [16]; > 100 µM (inactive) in experiment [17]; 80.5 µM (inactive) in experiment [18]. Moreover, in experiment [19], the GI50 was 91.4 µM (inactive).
Consider `COC(=O)CCc1ccc2c(c1)CCC2`, for which the GI50 in [1], in experiment [2], in experiment [3], in experiment [5], in experiment [6] and in experiment [7] was > 100 µM (inactive) each time. The GI50 in experiment [8], in [9], in experiment [20], in [10], in experiment [11] and in [12] was > 100 µM (inactive) each time. Besides, the GI50 in [13], in [14], in [15], in experiment [16], in experiment [17] and in experiment [18] was > 100 µM (inactive) throughout. Besides, the GI50 in experiment [19] is > 100 µM (inactive).
Regarding `O=C1CN(C(=O)C2CCCN2C(=O)C2CCCN2)C(=O)CN1` (stereo not given), the GI50 in experiment [1], in experiment [2], in [3], in experiment [4], in experiment [5] and in [6] was > 100 µM (inactive) throughout. Also, the GI50 in [7] was 36.8 µM (inactive); in experiment [8] it was > 100 µM (inactive); in experiment [9], > 100 µM (inactive); in [20], > 100 µM (inactive); in [12] it was > 100 µM (inactive); in experiment [13] it was > 100 µM (inactive). The GI50 in [14], in [15], in [16], in [17], in [18] and in experiment [19] was > 100 µM (inactive) each time.
Regarding `O=C1OC(c2ccccc2)=N/C1=C\c1ccc(Br)cc1`, the GI50 in experiment [1], in [2], in [3], in experiment [4], in [5] and in experiment [6] was > 100 µM (inactive) each time. For the same molecule, the GI50 in experiment [7] is > 100 µM (inactive); in [8], > 100 µM (inactive); in experiment [9] it was 94 µM (inactive); in [20] it was > 100 µM (inactive); in [10], > 100 µM (inactive); in experiment [11], > 100 µM (inactive). Besides, the GI50 in experiment [12], in experiment [13], in experiment [14], in experiment [15], in experiment [16] and in [17] was > 100 µM (inactive) throughout. The GI50 in experiment [18] was > 100 µM (inactive).
Consider `O=c1cc(-c2ccccc2)[nH]c2ccc(S)cc12`, for which the GI50 in experiment [1] was 79.8 µM (inactive); in [2], 30.2 µM (inactive); in experiment [3] it was 23.5 µM (inactive); in [5], 21 µM (inactive); in experiment [6] it was 26.2 µM (inactive); in [7] it was 21.4 µM (inactive). Further, the GI50 in experiment [8] was > 10 µM (inactive); in experiment [9] it was 14.3 µM (inactive); in experiment [20] it was 16.1 µM (inactive); in experiment [10], 72.3 µM (inactive); in [12], 18.3 µM (inactive); in experiment [13], 64.4 µM (inactive). The GI50 in experiment [14] was 38.7 µM (inactive); in experiment [15] it was 15.1 µM (inactive); in experiment [16], 33.9 µM (inactive); in experiment [17] it was 26.1 µM (inactive); in [18], 17.2 µM (inactive).
